Results: patent US4822408A, “Alkyl-, alkenyl- and alkynylnitroguanidines as cytokinin plant growth regulants” (American Cyanamid Company, priority 1987, dated 1989)
Values after ≈ are worked out from the molar mass of the structure shown. Values joined by “and” are separate entries in the source; they are usually repeats but may differ in a detail not shown here. Equal entries are not always repeated. Where two headings read alike, the source gives them in different places.

Columns and labels:
cucumber cotyledon = assay: tissue or blood; assay type: cell-based, Cucumis sativa var. National Pickling; settings: 0.06-64 ppm typically tested, inactive if more than 200 ppm; for EC50: Cucumis sativus, read-out: ED50 (the source's name)
Soybean callus = Soybean callus culture bioassay (definitive cytokinin activity); assay type: cell-based, Glycine max CV. Acme; settings: for Callus Dry Weight / Callus Fresh Weight: 6 weeks, 3 flasks per treatment; for Callus Dry Weight: no supplement 22.2 ± 9; for Callus Fresh Weight: initial fresh weight 240 mg, no supplement 283 ± 99
Experimental: Soybean callus cultures (from Glycine max CV. Acme) are subdivided into smaller callus pieces each weighing about 80 mg each. These pieces are placed on 50 ml of agar containing nutrient medium from which the usual growth supporting cytokinin hormone has been deleted. Without cytokinin hormone, the callus tissue will not divide and grow. Any compound which can provide for growth of the callus under these circumstances is by definition a cytokinin. The test is thus definitive and diagnostic. Different flasks of the nutrient medium are therefore supplemented with either the known cytokinin N^6 -benzyladenine as a standard or with the indicated test compound. After 6 weeks of axenic culture, the callus pieces are weighed, then oven dried and weighed again, such that the amount of callus growth is determined as a function of increased tissue weight.

cucumber cotyledons = assay: Antagonism of cytokinin activity by a cytokinin antagonist in the cucumber cotyledon bioassay; assay type: cell-based, Cucumis sativa var. National Pickling
Experimental: Cucumber seeds (Cucumis sativa var. National Pickling) are germinated in vermiculite in the dark at 30° C. for 6 days. The cotyledons are subsequently excised under a dim green safelight and placed abaxial side up in […] petri dishes at 8 pairs of cotyledons per dish. The dishes also contain three layers of Whatman No. 1 filter paper and 10 mls of test solution. The dishes with cotyledons are returned to the dark at 30° C. for about 18 hours. Thereafter the dishes are placed under fluorescent light at about 12 μw per square cm for 3 hours at 25° C. The cotyledons are then blotted and placed in 5 ml of dimethylformamide overnight and at 4° C. to extract the chlorophyll. The leachate is then analyzed for absorbance at 663 nanometers by spectrophotometry (Moran and Porath Plant Physical (1980) 65: 478-9) to determine relative chlorophyll biosynthesis. The cotyledons are then measured for area by using a sensitive leaf area meter. These two parameters, chlorophyll synthesis and enhanced expansion of the cotyledons are used as a measure of relative cytokinin activity. The test solutions typically contain between 0.06 and 64 ppm of test compound, up to 1.3% acetone, and 40 mM KCl. The amount of compound is varied in order to determine the dose at which there is achieved a response which is 50% of the maximum possible enhancement, as judged by a standard. This is termed the 50% effective dose or ED50 (Table).
The above compound is a known (Hecht et al.) Biochemistry 10:4224 (1971) antagonist of the activity of cytokinins such as the natural cytokinin 6-(3-methyl-2-butenylamino)purine (2iP). For example 0.003 μM 2iP is required for maximum growth of tobacco callus tissue cultures. The antagonist decreases this effect in the range of 0.1 μM (detectable) to 0.73 μM (lethal). (Ref. Skoog et al. Phytochemistry 12: 25-37 (1973)).
Test solutions are prepared to contain a test compound in both the presence and absence of the antagonist.

[1] = test system: habituated callus tissue (Nicotiana tabacum A21-10H); assay: Stimulation of callus growth from a habituated line of Nicotiana tabacum; assay type: cell-based; design: key to Chlorophyll production: -: None; +: Slight; ++: Moderate; +++: Very Good; settings: for Callus Growth Fresh weight: 0.02 ppm naphthalene acetic acid, untreated 0.6; for Chlorophyll production: untreated -
Experimental: A specialized callus tissue (Nicotiana tabacum A21-10H) which was known to be unique in that it had been selected to no longer require cytokinins for callus to grow (this condition is known as "habituated") as long as 2 ppm naphthalene acetic acid was present in the medium, is transferred to flasks of basal media containing mineral salts based on the formulation of Murashige and Skoog, Physiologia plantarum 15: 473-497 (1962), and containing 100 mg per liter of i-inositol, 0.4 mg per liter of thiamine.HCl, and 3% sucrose (Huang, L. C. and T. Murashige 1976, TCA manual 3(1): 539-548) as well as 0.9% to 0.95% Difco® agar. The pH of the medium is adjusted to pH 5.8.
Test solutions are added from 5000 ppm stock solutions in ethanol and the stimulation of callus growth determined by the increase in fresh weight per treatment (per flask) in grams and by chlorophyll production rated as indicated in the rating system below. (No shoot regeneration can occur in this line due to the length of time (>4 years) it has been maintained in culture.)

[2] = test system: tobacco callus tissue cultures; settings: cited from earlier work

In the case of `N=C(NCCCC(N)C(=O)O)N[N+](=O)[O-]` (centres unmarked), the EC50 (cucumber cotyledon) is reported as 31 µg/mL (≈ 141 µM).
`C/C(Cl)=C/CNC(=N)N[N+](=O)[O-]` showed an EC50 (cucumber cotyledon) of 1 µg/mL (≈ 5.19 µM).
Compound `CC(CO)CCNC(=N)N[N+](=O)[O-]` (centres unmarked) has an EC50 (cucumber cotyledon) of 14 µg/mL (≈ 73.6 µM).
`C/C(=C\CNC(=N)N[N+](=O)[O-])CO` gave an EC50 (cucumber cotyledon) of 2.5 µg/mL (≈ 13.3 µM).
With `CC(C)=CCNC(=N)N[N+](=O)[O-]` [1-(3-methyl-2-butenyl)-3-nitroguanidine] the EC50 (cucumber cotyledon) was 3.8 µg/mL (≈ 22.1 µM), the “effect on callus growth at 10^-4 M” value (Soybean callus; 10^-4 M) was “extremely active” and the “Callus Dry Weight” value (Soybean callus; 10^-4 M) was 410 ± 87 mg per 3 pieces. For the same compound, the “Callus Fresh Weight” value (Soybean callus; 10^-4 M) was 5324 ± 1148 mg per 3 pieces, the “Relative Chlorophyll” value (cucumber cotyledons; Experiment B, 20 ppm, antagonist none, H2O alone 443) was 1200 and the “Relative Chlorophyll” value (cucumber cotyledons; Experiment B, 20 ppm, with antagonist 10 ppm, H2O alone 443) was 388. For the same compound, the “Callus Growth Fresh weight” value ([1]; Molar concentration 10^-4) was 2.9 grams per flask and the Chlorophyll production ([1]; Molar concentration 10^-4) was “++”.
For `CC(C)=CCNc1ncnc2nc[nH]c12` [2iP, 6-(3-methyl-2-butenylamino)purine], the “concentration required for maximum growth of tobacco callus tissue cultures” value [2] is given as 0.003 µM.
With `Cc1n[nH]c2c(NCCC(C)C)ncnc12` [7-(Isopentylamine)-3-methyl-1H-Pyrazolo[4,3-d]pyrimidine] the “Relative Chlorophyll” value (cucumber cotyledons) was 415 and 406, the “effect of antagonist on response of cucumber cotyledons to N^6-benzyladenine” value (cucumber cotyledons) was “prevents the response of cucumber cotyledons” and the “prevention of enhancement of chlorophyll synthesis” value (cucumber cotyledons) was “able to fully prevent the enhancement of chlorophyll synthesis”. For the same compound, the “antagonist concentration decreasing the effect of 2iP, detectable” value ([2]; detectable, against 2iP) was 0.1 µM and the “antagonist concentration decreasing the effect of 2iP, lethal” value ([2]; lethal, against 2iP) was 0.73 µM.
In the case of `CC(C)CCNC(=N)N[N+](=O)[O-]` [(CH3)2 CHCH2 CH2], the EC50 (cucumber cotyledon) is reported as 64 µg/mL (≈ 367 µM).
With `CC(C)NC(=N)N[N+](=O)[O-]` [(CH3)2 CH] the ED50 (cucumber cotyledon) was 45 ppm.
With `CC(C)(C)NC(=N)N[N+](=O)[O-]` [(CH3)3 C] the ED50 (cucumber cotyledon) was 31 ppm.
`N=C(NCCC=C(Cl)Cl)N[N+](=O)[O-]` [(Cl)2 CCHCH2 CH 2] showed an EC50 (cucumber cotyledon) of 11 µg/mL (≈ 48.4 µM).
`CCCCNC(=N)N[N+](=O)[O-]` [-n-C4 H9] showed an EC50 (cucumber cotyledon) of 31 µg/mL (≈ 194 µM).
For `CCCCCNC(=N)N[N+](=O)[O-]` [-n-C5 H11], the EC50 (cucumber cotyledon) was 31 µg/mL (≈ 178 µM).
`CCC(C)(C)NC(=N)N[N+](=O)[O-]` [C2 H5 C(CH3)2] showed an EC50 (cucumber cotyledon) of 22 µg/mL (≈ 126 µM).
For `CCOCCNC(=N)N[N+](=O)[O-]` [C2 H5 OCH2 CH2], the EC50 (cucumber cotyledon) was 113 µg/mL (≈ 641 µM).
Work on `C=CC(C)(C)NC(=N)N[N+](=O)[O-]` [CH2CHC(CH3)2] yielded an ED50 (cucumber cotyledon) of 157 ppm.
In the case of `C=CCNC(=N)N[N+](=O)[O-]` [CH2CHCH2], the ED50 (cucumber cotyledon) is reported as 22 ppm.
Compound `COCC(C)NC(=N)N[N+](=O)[O-]` (centres unmarked) [CH3 OCH2 CH(CH3)] has an EC50 (cucumber cotyledon) of 113 µg/mL (≈ 641 µM).
`N=C(NCCCCO)N[N+](=O)[O-]` [HOCH2 CH2 CH2 CH2] showed an EC50 (cucumber cotyledon) of 113 µg/mL (≈ 641 µM).
In the case of `c1coc(CNc2ncnc3[nH]cnc23)c1` [Kinetin], the “Callus Growth Fresh weight” value ([1]; Molar concentration 10^-4) is reported as 1.4 grams per flask, the Chlorophyll production ([1]; Molar concentration 10^-4) is reported as “-” and the “Callus Growth Fresh weight” value ([1]; Molar concentration 10^-5) is reported as 0.8 grams per flask. The Chlorophyll production ([1]; Molar concentration 10^-5) was “-”, the “Callus Growth Fresh weight” value ([1]; Molar concentration 10^-6) was 0.3 grams per flask and the Chlorophyll production ([1]; Molar concentration 10^-6) was “-”. For the same compound, the “Callus Growth Fresh weight” value ([1]; Molar concentration 10^-7) was 0.2 grams per flask, the Chlorophyll production ([1]; Molar concentration 10^-7) was “-” and the “efficacy in the habituated callus system” value ([1]; reduced auxin level (0.02 ppm naphthalene acetic acid)) was “ineffective”.
With `c1ccc(CNc2ncnc3nc[nH]c23)cc1` [N^6 benzyladenine, N^6 -benzyladenine] the “optimum concentration of the standard” value (Soybean callus) was 10^-6 M, the “effect on callus growth at 10^-4 M” value (Soybean callus; 10^-4 M) was “supraoptimal effect whereby the beneficial effect was negated” and the “Callus Dry Weight” value (Soybean callus; 10^-4 M) was 28 ± 5 mg per 3 pieces. For the same compound, the “Callus Fresh Weight” value (Soybean callus; 10^-4 M) was 434 ± 193 mg per 3 pieces, the “Callus Dry Weight” value (Soybean callus; 10^-6 M) was 351 ± 63 mg per 3 pieces and the “Callus Fresh Weight” value (Soybean callus; 10^-6 M) was 5826 ± 1110 mg per 3 pieces. The “Relative Chlorophyll” value (cucumber cotyledons; Experiment A, 0.1 ppm, antagonist none, H2O alone 370) was 853 and the “Relative Chlorophyll” value (cucumber cotyledons; Experiment A, 0.1 ppm, with antagonist 10 ppm, H2O alone 370) was 460.
